Laboratory results: patent US11964984B2, “TXNIP-TRX complex inhibitors and methods of using the same” (CITY OF HOPE, priority 2020, dated 2024)

What was measured:
[1] = tested on: TXNIP mRNA; assay: TXNIP mRNA in primary human pancreatic islets under 25 mM glucose (RT-PCR); type: cell-based; conditions: human pancreatic islets (500 IEQ), 2.5 uM, 48 h
Procedure: FIGS. 12A-12B. […] Human pancreatic islets (500 IEQ) were cultured with PIM(R) (Prodo Labs) medium under 25 mM glucose with 2.5 uM of the indicated compounds for 48 h. Total RNA was collected. RT-PCR was performed in triplicate and data shown are the mean±SEM. Statistical analysis was performed using one-way ANOVA: *p<0.0001. […] Human pancreatic islets (500 IEQ) were cultured with PIM(R) (Prodo Labs) under 25 mM glucose with 2.5 uM of the indicated compounds for 48 h. Total RNA was collected. RT-PCR was performed in triplicate and data shown are the mean+SEM. Statistical analysis was performed using one-way ANOVA: *p<0.0001.
Testing lead compounds in human pancreatic islets. To further explore the effects of the lead compounds as possible therapies in diabetes, we conducted translational studies in primary human pancreatic islets (obtained from the City of Hope islet isolation center).
(§1) RNA extraction and quantitative RT-PCR. RNA was extracted using the Direct-zol™ RNA MiniPrep Plus (Zymo Research). […] Diluted cDNA was quantified using real-time PCR performed with Power SYBR Green qPCR MasterMix (Applied Biosystem) and 7500 real-time PCR system (Applied Biosystems). […]

[2] = tested on: TNF-α mRNA; assay: TNF-α mRNA expression in murine RAW macrophages (RT-PCR); type: cell-based, mouse; conditions: RAW264.7 cells, 25 mM glucose, 72 hours
Procedure: (§2) FIGS. 3A-3B. FIG. 3A: C30 and C38 inhibited TXNIP mRNA expression in murine RAW macrophages. RAW cells were cultured under 25 mM glucose with various concentration of C30 and C38 as indicated for 72 hours. Total RNA was prepared. RT-PCR was performed and data shown are the mean±SEM from triplicates. Statistical analysis was performed for each column vs. high glucose (HG) DMSO using one-way ANOVA: *p<0.0001. FIG. 3B: Treatment with C30 and C38 decreased TNF-α mRNA expression in murine RAW macrophages. RAW cells were cultured under 25 mM glucose with various concentration of C30 and C38 as indicated for 72 hours. Total RNA was prepared. RT-PCR was performed and data shown are the mean±SEM from triplicates. Statistical analysis was performed for each column vs. HG DMSO using one-way ANOVA: *p<0.0001.
(§3) Treatment of murine RAW macrophages with lead compounds C30 and C38 decreased TXNIP and TNF-α. We have also tested the effects of the lead compound in murine RAW264.7 (RAW) macrophages. As in human THP1 cells, C30 and C38 inhibited TXNIP and TNF-α mRNA expression in mouse RAW cells (FIGS. 3A-3B) showing they are also effective in mouse cells. […]
(§4) RNA extraction and quantitative RT-PCR. […] Diluted cDNA was quantified using real-time PCR performed with Power SYBR Green qPCR MasterMix (Applied Biosystem) and 7500 real-time PCR system (Applied Biosystems). […]

[3] = tested on: TNF-α mRNA; assay: TNF-α mRNA expression in THP1 cells under 25 mM glucose (RT-PCR); type: cell-based, human; conditions: 72 hours, relatively higher concentrations needed than for TXNIP mRNA
Procedure: FIGS. 2A-2B. FIG. 2A: C30 and C38 inhibited TXNIP mRNA expression in THP1 cells. THP1 cells were cultured under 25 mM glucose with the indicated concentrations of compounds for 72 hours. Cells were then collected for total RNA preparation. RT-PCR was performed, and data shown are the mean±SEM from triplicates. Statistical analysis was performed using one-way ANOVA, *p<0.0001. FIG. 2B: C30 and C38 inhibited TNF-α mRNA expression in THP1 cells. THP1 cells were cultured under 25 mM glucose with various concentrations of compounds as indicated for 72 hours and collected for total RNA preparation. RT-PCR was performed, and data shown are the mean±SEM from triplicates. Statistical analysis was performed using one-way ANOVA: *<0.02; **<0.0001.
Treatment with both agents lead to lower levels of TNF-α mRNA, although this required relatively higher concentrations compared to those that suppressed TXNIP mRNA (see FIG. 2A).
as §1

[4] = tested on: TXNIP mRNA; assay: TXNIP mRNA expression in murine RAW macrophages (RT-PCR); type: cell-based, mouse; conditions: RAW264.7 cells, 25 mM glucose, 72 hours
Procedure: as §2, §3, §4

[5] = tested on: human islets; assay: BCL2/BAX ratio (apoptosis marker) in human islets under high glucose plus cytokines; type: cell-based; conditions: 25 mM glucose + TNFα, IL1β, IFNγ, 40 hours
Procedure: FIGS. 18A-18B. C30 and C38 compounds protect cells from apoptosis in human islets. 100 IEQ human islets (Hu 1178) were cultured in PIM(R)© containing NG (5.8 mM glucose) or HG (25 mM glucose), and TNFα (20 ng/ml), IL1β (20 ng/ml), IFNγ (200 ng/ml) for 40 hours with or without lead compounds. Total RNA was prepared and RT PCR performed. FIG. 18A: BCL2/BAX ratios are the mean±SEM from triplicates. Statistical analysis was performed for each column vs. HG, 3 cytokines using one-way ANOVA: *p<0.002. FIG. 18B: TXNIP relative mRNA levels. Data shown are the mean±SEM from triplicates. Statistical analysis was performed for each column vs. HG, 3 cytokines using one-way ANOVA: **p<0.0001.
In T1D, β-cell death involves necrosis and apoptosis. BCL2 limits BAX/BAK oligomerization, to impede the release of several apoptogenic molecules from mitochondria. Also, BCL2 binds to and inactivates BAX and other pro-apoptotic proteins, thereby inhibiting apoptosis. BAX and BAK disrupt the integrity of the mitochondrial outer membrane to promote apoptotic cell death. As such, the BCL2/BAX ratio is used as a marker of cell susceptibility to apoptosis. High levels of this ratio can serve as an indicator of the resistance of human cells to apoptosis. […]

| Structure (SMILES) | TXNIP mRNA [1] | TNF-α mRNA expression [2] | TNF-α mRNA expression [3] | TXNIP mRNA expression [4] | BCL2/BAX ratio [5] |
| --- | --- | --- | --- | --- | --- |
| COc1cc(N2CC[C@@H](c3ccc4ccccc4c3)[C@H](O)C2)nc(N)n1 [Compound C30] | target TXNIP mRNA | inhibited | reduced TNF-α expression | inhibited | significantly increased BCL2/BAX ratios |
| c1ccc(CCNc2ncnc3c2oc2ccccc23)cc1 [Compound C38] | target TXNIP mRNA | inhibited | reduced TNF-α expression | inhibited | significantly increased BCL2/BAX ratios |
